Measurements taken from patent publication US10893676B2, “1-acetyl-3-phenyl urea compound, and use thereof” (Sumitomo Chemical Company, Limited, priority 2016, dated 2021).

What was measured:
Amaranthus retroflexus = assay: Post-emergence treatment test in a farmland (foliar spray, greenhouse pots); assay type: in vivo; conditions: application rate 4 kg/ha, sprayed at two-leaf stage, visually evaluated nine days after spraying, 11 stages from 0 (no effect) to 10 (complete kill)
Method: Nursery soil was put in a plastic pot measuring 8 cm in diameter and 6.5 cm in height, and in the pot, seeds of Amaranthus retroflexus were sown, and then covered with soil of about 0.5 cm thickness, and the plants were grown in a greenhouse. When the Amaranthus retroflexus plants were grown to two-leaf stage, a diluted solution containing either the present compound or a compound represented by formula (B) below (which is described in European Patent No. 1122244 B2) (hereinafter, referred to as Compound B) was uniformly sprayed on the whole Amaranthus retroflexus plants so that the application rates of the chemicals would be values indicated in Table 1.
Here the diluted solution was prepared by dissolving the present compound or the compound B in dimethylformamide solution containing 2% of Tween 20 (polyoxyethylene sorbitan fatty acid ester) (manufactured by MP Biomedicals Inc.) and then diluting the solution with deionized water.
The Amaranthus retroflexus plants that were sprayed with the diluted solution containing the present compound or the compound B were grown in a greenhouse. Nine days after spraying, the efficacy for controlling Amaranthus retroflexus plants was observed, thereby examining a herbicidal effect. Here the herbicidal effect was visually observed and evaluated by classifying the effect into 11 stages from 0 (no effect) to 10 (complete kill).

Arabidopsis thaliana = assay: Inhibitory activity on emergence of Arabidopsis thaliana (24 well plate, filter paper); assay type: in vivo; conditions: treatment concentration 8000 ppm, visually evaluated seven days after sowing, indices 0 (no effect) to 100 (no emergence)
Method: Inhibitory Activity on Emergence of Arabidopsis thaliana
Each well of 24 well microtiter plates was matted with a filter paper, and to the filter paper was added dropwise the solution in which the present compound or the compound B was dissolved in acetone. After air-drying, distilled water was added to each well so that the concentration of the present compound or the compound B in each well would be 8000 ppm. Next, seeds of Arabidopsis thaliana were sown into each well containing the present compound or the compound B, followed by putting a lid on each well, and cultivating Arabidopsis thaliana under the condition that a cultivation at 25° C. under lighting for 16 hours and a successive cultivation at 25° C. under dark for 8 hours were repeated. Seven days after sowing, the inhibitory activity on emergence of Arabidopsis thaliana was visually evaluated by classifying the activity into 0 to 100 indices (0: no effect to 100: no emergence).

## CCOC(=O)COc1ncccc1Oc1cc(NC(=O)NC(C)=O)c(F)cc1Cl [Present compound]
Amaranthus retroflexus
  Herbicidal Effect: 8
Amaranthus retroflexus; listed as present compound
  Herbicidal Effect: higher herbicidal effect compared to the compound B
Arabidopsis thaliana
  Inhibitory Activity on Emergence: 80
Arabidopsis thaliana; listed as present compound
  Inhibitory Activity on Emergence: higher inhibitory activity compared to the compound B

## CCOC(=O)COc1ncccc1Oc1cc(NC(C)=O)c(F)cc1Cl [Compound B, N-[4-chloro-2-fluoro-5-{2-(ethoxycarbonyl)methoxy-3-pyridyloxy}phenyl]acetamide, reference compound]
Amaranthus retroflexus
  Herbicidal Effect: 1
Arabidopsis thaliana
  Inhibitory Activity on Emergence: 30
